What all share (format): in vivo, mouse
The test system of experiment [1] is DIO mice (C57BL/6). Kind of experiment: Oral Glucose Tolerance Test (OGTT) in DIO mice. The conditions noted are these: male DIO mice, OGTT (2 g/kg) 16 hours post injection. The protocol:
Diet-induced obese (DIO) mouse model is a model of insulin resistance. Five to six months old male DIO mice (C57BL/6) from Taconic Biosciences are used in this study. Animals are individually housed in a temperature-controlled (24° C.) facility with a 12 hour light/dark cycle (lights on 06:00), and free access to food and water. The acclimation period to the facility is two weeks. The day before the study, animals are randomized into groups based on their body weight. That same afternoon, animals are fasted in clean cages and dosed with vehicle (40 mM Tris-HCl, pH 8.0) or test articles by subcutaneous injection. The following morning, 16 hours post the peptide injection, fasting body weights are obtained to calculate glucose doses. Blood samples are taken to measure time zero glucose. Animals are then given an oral gavage of glucose (2 g/kg). Two glucose readings via glucometers were obtained at 15, 30, 60 and 120 minutes post oral glucose. The average of two glucose readings is reported at each time point and an area under the curve is calculated. Statistics were analyzed using ANOVA with Dunnett's comparison by JMP 6; significance is denoted at p≤0.05 vs. vehicle.

For experiment [2], the system named is STZ-treated DIO mice (C57BL/6). Description: OGTT in Streptozotocin (STZ)-treated DIO mice. The settings on record: male STZ mice, OGTT (2 g/kg) 16 hours post injection. The protocol: STZ-treated mouse model is a model of early diabetes. Five to six months old male DIO mice (C57BL/6) from Taconic Biosciences are used in this study. Animals are individually housed in a temperature-controlled (24° C.) facility with a 12 hour light/dark cycle (lights on 6:00), and free access to food and water. After two weeks acclimation to the facility, mice are injected intraperitoneally with 50 mg/kg of STZ on Tuesday and Friday. Two weeks post the injection, animals with glucose levels between 180-300 mg/dL at 09:00 are selected for the OGTT study. The day before the study, animals are randomized into groups based on body weight and their glucose levels. Animals are treated with vehicle or testing articles by subcutaneous injection just prior to food removal overnight (16:00). The following morning at 08:00, 16 hours post compound injection, blood samples are taken to measure time zero glucose. Animals are given an oral dose of glucose of 2 g/kg. Glucose is measured 15, 30, 60, and 120 minutes post the oral glucose challenge. Statistics are analyzed using ANOVA with Dunnett's comparison by JMP 6. Significance is denoted at p≤0.05 vs. vehicle.

The test system of experiment [3] is DIO mice (C57BL/6). Description: Chronic treatment in DIO mice (body weight, fat, food intake). The method, then: The effects on food intake and body weight/fat are evaluated in DIO mice. Five to six months old DIO mice (C57BL/6) from Taconic Biosciences are used in this study. Animals are individually housed in a temperature-controlled (24° C.) facility with a 12 hour light/dark cycle (lights on 6:00), and free access to food and water. The mice are acclimated to the facility for two weeks. The day before the study start, fat mass is measured by nuclear magnetic resonance (NMR) using an Echo Medical System (Houston, Tex.) instrument. The mice are randomized to treatment groups (N=7/group) based on body weight and fat mass so each group had similar starting mean body weight and fat mass. […] SC injections are made on Day 1, 4, 7, 10, and 13. Body weight and food intake are measured right before each injection throughout the study. Percent changes in body weight are calculated as follows: […]
At the completion of the study, total fat mass is measured again by NMR. Statistics are analyzed using ANOVA with Dunnett's comparison by JMP 6. Significance is denoted at p≤0.05 vs. vehicle.

The subject of experiment [4] is DIO mice (C57BL/6). Description: Acute treatment in DIO mice (PCSK9, FGF-21, cholesterol). The method, then:
In order to investigate metabolic pathways involved with the treatment of compounds of the present invention independent of weight loss, compounds are tested in DIO mice (C57BL/6) acutely. The mice used are three to four months old on a high fat diet for at least 4 weeks. Animals are individually housed in a temperature-controlled (24° C.) facility with a 12 hour light/dark cycle (lights on 6:00), and free access to food and water. Vehicle or testing compounds were administered to mice by subcutaneous injection at 16:00 the day before the study day. Animals were sacrificed 16 hours later to collect blood via cardia puncture. Statistics are analyzed using ANOVA with Dunnett's comparison for JMP-6. Significance is denoted at p≤0.05 vs vehicle.
Food intake was decreased to a similar level in all treatment groups, which may indicate that changes in cholesterol, PCSK9 and FGF-21 are food-intake independent.

The test system of experiment [5] is DIO mice (C57BL/6). Kind of experiment: Effects on energy expenditure in DIO mice (indirect calorimetry). The conditions noted are these: for Cumulative Heat (Kcal/kg lean mass/3 day): test article 15 nmol/kg, semaglutide 60 nmol/kg sc every three days. The method, then:
Seven to eight months old male DIO mice (C57BL/6) weighing 45-50 g are used in this study to assess the effect of compounds of the present invention on energy metabolism. Animals are individually housed in a temperature-controlled (24° C.) facility with a 12 hour light/dark cycle (lights on 22:00), and free access to food (TD95217)(Teklad) and water. After 2 weeks acclimation to the facility, mice are randomized to treatment groups (N=6/group) based on body weight so each group has similar starting mean body weight. Animals are placed in a PhenoMaster/LabMaster calorimeter (TSE Systems, Chesterfield, Mo.) for 8 days of acclimation.
Heat and […] (RER) are measured by indirect calorimetry as described using an open-circuit calorimetry system. RER is the ratio of the volume of CO2 produced (VCO2) to the volume of O2 consumed (VO2). Heat is calculated with lean body weight considered. The energy expenditure is kcal/kg/3 day and expressed as mean±SEM of 6 mice per group. Statistical significance is assessed by two-way ANOVA followed by Tukey's multiple comparison test.

Where [6] appears, read: 30 nmol/kg sc every three days for 15 days.
Where [7] appears, read: 60 nmol/kg sc every three days for 15 days.
Where [8] appears, read: 30 nmol/kg sc, 16 hours post dose.

Marks after values point to notes of the source that are not given here.

semaglutide [reference compound]: the “Glucose AUC (% of vehicle)” value in experiment [1] (1 nmol/kg sc) is 59* % of vehicle; in experiment [1] (3 nmol/kg sc) it was 51* % of vehicle; in experiment [1] (10 nmol/kg sc) it was 38* % of vehicle; in experiment [2] (1 nmol/kg sc), 72* % of vehicle; in experiment [2] (3 nmol/kg sc) it was 53* % of vehicle; in experiment [2] (10 nmol/kg sc), 35* % of vehicle. Also, the “Body Fat (% change vs. vehicle from Day 1)” value in experiment [3] (setting [6]) is −20* %; in experiment [3] (setting [7]), −29* %. Also, the results for the “Body Weight (% change vs. vehicle from Day 1)” value in experiment [3] (setting [6]) and in experiment [3] (setting [7]) were −8% and −12* %, respectively. Besides, the “Cholesterol (% of vehicle)” value in experiment [4] (setting [8]) is on record as 117.6 % of vehicle. Moreover, the “FGF-21 (% of vehicle)” value in experiment [4] (setting [8]) was 75 % of vehicle. Besides, the “PCSK9 (% of vehicle)” value in experiment [4] (setting [8]) is recorded as 115.3 % of vehicle. Further, the “serum cholesterol, PCSK9 and FGF-21 levels” value in experiment [4] (acute treatment) was “does not decrease serum cholesterol and PCSK9 levels and increase FGF-21 levels”. In addition, in experiment [5] (DIO mice, chronic treatment), the metabolic rate entry is listed as “no effect on metabolic rate”. In addition, the “Cumulative Heat (Kcal/kg lean mass/3 day)” value in experiment [5] (Day 1 to Day 4) is 1973 ± 51 Kcal/kg lean mass/3 day; in experiment [5] (Day 4 to Day 7), 2018 ± 54 Kcal/kg lean mass/3 day; in experiment [5] (Day 7 to Day 10), 2151 ± 48 Kcal/kg lean mass/3 day; in experiment [5] (Day 10 to Day 13), 2138 ± 46 Kcal/kg lean mass/3 day.
